Experimental data published in US9376420B2 (YUHAN CORPORATION, priority 2012, dated 2016).

Target: T1, human LXRβ (Homo sapiens, UniProt P55055)
T1 construct: expressed in transfected cells; host or cells: HEK293 cells (ATCC CRL-1573), transient transfection with pFA-hLXRβ/GAL4 and pUAS
T1 sequence (P55055 222-460 limits assumed): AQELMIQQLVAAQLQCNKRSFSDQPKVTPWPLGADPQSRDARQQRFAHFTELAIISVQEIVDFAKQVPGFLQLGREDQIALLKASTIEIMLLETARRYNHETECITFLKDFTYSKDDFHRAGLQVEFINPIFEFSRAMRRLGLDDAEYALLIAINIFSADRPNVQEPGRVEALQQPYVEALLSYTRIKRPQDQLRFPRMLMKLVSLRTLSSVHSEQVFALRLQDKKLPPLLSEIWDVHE
Assay: Assay for Transcriptional Activity of LXRβ (GAL4-hLXRβ LBD luciferase reporter, transient transfection)
Assay type: cell-based
Conditions: HEK293 cells transfected with pFA-hLXRβ/GAL4 and pUAS, 24 hours; for Emax: fold value in comparison with the control (DMSO-treated group); for EC50: increase of transcriptional activity of LXRβ, average of three independent tests
Procedure, shortened: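 EC50 values, averaged over three independent runs, come from a four-parameter fit of 9-point half-log curves spanning 0.01–50 μM. Luciferase output was read in lysed HEK293 cells 24 h after dosing at 37 °C, following transient transfection with a GAL4-human LXRβ LBD fusion plus GAL4-responsive reporter.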

Compound | Emax [fold] | EC50 [nM]
Fc1ccc(N2N=C(C(F)(F)C(F)(F)F)CC2c2cccc(-c3ccc(F)nc3)c2)c(F)c1 (centres unmarked) [Example 55, 1-(2,4-difluoro-phenyl)-5-[3-(6-fluoro-pyridin-3-yl)-phenyl]-3-pentafluoroethyl-4,5-dihydro-1H-pyrazole] | 73 | 4900
CS(=O)(=O)N1CCN(c2ccc(C3CC(C(O)(C(F)(F)F)C(F)(F)F)=NN3c3ccccc3Cl)cn2)CC1 (centres unmarked) [Example 360, 1-(2-chloro-phenyl)-5-[6-(4-methanesulfonyl-piperazin-1-yl)-pyridin-3-yl]-3-[di-(trifluoromethyl)-hydroxy-methyl]-4,5-dihydro-1H-pyrazole] | 45 | 10200
CS(=O)(=O)N1CC=C(c2cccc(C3CC(C(F)(F)C(F)(F)F)=NN3c3ccc(F)cc3F)c2)CC1 (centres unmarked) [Example 62, 1-(2,4-difluoro-phenyl)-5-[3-(1-methanesulfonyl-1,2,3,6-tetrahydropyridin-4-yl)-phenyl]-3-pentafluoroethyl-4,5-dihydro-1H-pyrazole] | 59 | 1160
CS(=O)(=O)N1CCN(c2cc(C3CC(C(F)(F)C(F)(F)F)=NN3c3ccc(F)cc3F)ccn2)CC1 (centres unmarked) [Example 194, 1-(2,4-difluoro-phenyl)-5-[2-(4-methanesulfonyl-piperazin-1-yl)-pyridin-4-yl]-3-pentafluoroethyl-4,5-dihydro-1H-pyrazole] | 95 | 3630

These reach a lower EC50. Values come first.

Emax [fold] | EC50 [nM] | Compound
44 | 993 | CC(O)c1ccc(-c2cccc(C3CC(C(F)(F)C(F)(F)F)=NN3c3ccccc3Cl)c2)cc1 (centres unmarked) [Example 108, 1-(2-chloro-phenyl)-5-[4′-(1-hydroxy-ethyl)-biphenyl-3-yl]-3-pentafluoroethyl-4,5-dihydro-1H-pyrazole]
72 | 819 | CN(CCO)S(=O)(=O)c1ccc(-c2cccc(C3CC(C(F)(F)C(F)(F)F)=NN3c3ccc(F)cc3F)c2)cc1 (centres unmarked) [Example 88, 1-(2,4-difluoro-phenyl)-5-{4′-[(2-hydroxy-ethyl)-methyl-sulfamoyl]-biphenyl-3-yl}-3-pentafluoroethyl-4,5-dihydro-1H-pyrazole]
46 | 747 | O=Cc1ccc(-c2cccc(C3CC(C(F)(F)C(F)(F)F)=NN3c3ccc(F)cc3F)c2)nc1 (centres unmarked) [Example 79, 1-(2,4-difluoro-phenyl)-5-[3-(5-formyl-pyridin-2-yl)-phenyl]-3-pentafluoroethyl-4,5-dihydro-1H-pyrazole]
53 | 635 | CCCS(=O)(=O)N1CC=C(c2ccc(C3CC(C(O)(C(F)(F)F)C(F)(F)F)=NN3c3ccccc3Cl)cc2)CC1 (centres unmarked) [Example 300, 1-(2-chloro-phenyl)-5-{4-[1-(propane-1-sulfonyl)-1,2,3,6-tetrahydropyridin-4-yl]-phenyl}-3-[di-(trifluoromethyl)-hydroxy-methyl]-4,5-dihydro-1H-pyrazole]
71 | 49 | O=C(Cc1ccccc1)N1CC=C(c2cccc(C3CC(C(O)(C(F)(F)F)C(F)(F)F)=NN3c3ccccc3Cl)c2)CC1 (centres unmarked) [Example 236, 1-(2-chloro-phenyl)-5-[3-(1-phenylacetyl-1,2,3,6-tetrahydropyridin-4-yl)-phenyl]-3-[di-(trifluoromethyl)-hydroxy-methyl]-4,5-dihydro-1H-pyrazole]
62 | 42 | CS(=O)(=O)c1cccc(-c2ccc(C3CC(C(O)(C(F)(F)F)C(F)(F)F)=NN3c3ccccc3Cl)c(F)c2)c1 (centres unmarked) [Example 347, 1-(2-chloro-phenyl)-5-(3-fluoro-3′-methanesulfonyl-biphenyl-4-yl)-3-[di-(trifluoromethyl)-hydroxy-methyl]-4,5-dihydro-1H-pyrazole]
